The values that follow are results of earlier work, collected in patent US20080089844A1 (priority 2002, published 2008).

In the data set the target is F425G Shaker mutation (Drosophila melanogaster, UniProt P08510, F425G). The following applies: cited from earlier work.
Sequence of F425G Shaker mutation (P08510 whole entry F425G, looked up): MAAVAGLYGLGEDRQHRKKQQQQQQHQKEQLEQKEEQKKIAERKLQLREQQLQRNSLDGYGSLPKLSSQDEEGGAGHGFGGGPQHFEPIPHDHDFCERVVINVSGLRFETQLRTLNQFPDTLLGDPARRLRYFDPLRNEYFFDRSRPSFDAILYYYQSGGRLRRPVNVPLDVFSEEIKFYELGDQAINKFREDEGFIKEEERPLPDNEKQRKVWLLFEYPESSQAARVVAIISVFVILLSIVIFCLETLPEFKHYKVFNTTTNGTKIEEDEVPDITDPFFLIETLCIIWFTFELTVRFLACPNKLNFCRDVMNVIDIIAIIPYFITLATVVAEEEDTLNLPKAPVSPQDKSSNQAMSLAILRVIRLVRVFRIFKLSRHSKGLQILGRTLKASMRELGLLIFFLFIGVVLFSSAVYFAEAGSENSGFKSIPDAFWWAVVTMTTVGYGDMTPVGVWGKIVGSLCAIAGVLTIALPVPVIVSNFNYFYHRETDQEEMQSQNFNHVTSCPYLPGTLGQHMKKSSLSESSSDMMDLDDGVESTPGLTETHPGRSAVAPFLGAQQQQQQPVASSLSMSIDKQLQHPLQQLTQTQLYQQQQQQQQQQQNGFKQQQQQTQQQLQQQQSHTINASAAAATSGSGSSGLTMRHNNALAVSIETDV

For charybdotoxin [reference compound], the “effect of F425G Shaker mutation on charybdotoxin affinity” value is on record as “increases charybdotoxin affinity by three orders of magnitude”.
